In patent US20240299353A1, “COMPOSITIONS AND METHODS FOR TREATING […] 5-MEO-DMT” (Alvarius Pharmaceuticals Ltd., priority 2021, published 2024):

Key:
[1] = test system: hippocampal proteins; test: Hippocampal LC-MS/MS proteomics, chronic cocaine with single psychedelic administration; format: in vivo, Male Wister rats
Experimental: Animals were then randomly allocated to one of five groups and received a single i.p. injection of one of vehicle, 5 mg/kg 5-Meo-DMT, 0.14 mg/kg LSD, 1 mg/kg psilocybin, or 1 mg/kg DOI. On day 15, animals were euthanised and the hippocampus blunt dissected, snap frozen in liquid nitrogen and stored at −80° C. until further processing.
Protein from hippocampal tissue was processed for liquid chromatography tandem Mass Spectrometry (LC-MS/MS). Samples were run on a Thermo Scientific Q Exactive Mass Spectrometer connected to a Dionex Ultimate 3000 (RSLCnano) chromatography system in the UCD Conway Institute Core Mass Spectrometry Facility. Peptide and protein identification of MS/MS spectra were searched against the rat UniProt database using carbamidomethylation (C) as a fixed modification and acetylation (protein N terminus) and oxidation (M) as variable modifications with a false discovery rate filtering of 0.01. MaxQuant was using to generate label-free quantitative (LFQ) ion intensities and the Perseus statistical software contained in the MaxQuant package was used to analyse LFQ ion intensity. Statistical significance (p<0.05, FC±20%) of mean LFQ intensity between treatment groups was determined by two sample t-test. […] Networks were visualised using the stringApp (version 1.6.0) plugin for the Cytoscape software platform (version 3.8.2).

[2] = test system: rats; test: Forced swim test; format: in vivo; settings: cohort 2; for immobility or time spent swimming: between treatment groups
Experimental: In this instance the animals were 9 weeks old at the initiation of drug exposures and we selected just the high (20 mg/kg) dose of 5-MeO-DMT from the molecular study. […] Due to the number of behavioral paradigms to be completed by each animal we divided the study into two cohorts staggered by two weeks with 8 animals coming from each cohort to make up the 16 animals for each treatment group. 23 hours after 5-MeO-DMT administration the animals were introduced to the open field arena where they were allowed to freely explore the area for 5 mins. Following the open field test (OFT) animals were returned to their home cage for 2 hours before beginning either the elevated plus maze (EPM) or pre-pulse inhibition (PPI) testing. 24 hours after completing the OFT animals were returned to the chamber for the first session in novel object (NO1) testing. The animals were returned to their home cage for 2 hours before beginning the EPM or PPI test. 24 hours after NO1 the animals returned to the open field chamber for the second session in novel object (N02) testing. After completing N02 animals were returned to their home cage for 2 hours before they underwent the forced swim test (FST) pre-test. 24 hours later the animals were returned to the FS cylinders for the FST. Upon completion of the FST all animals were euthanized. A timeline of this experimental cohort is described in FIG. 8A.
The experiment was conducted as described for cohort 1 for the first 13 days of injections. There are a number of notable differences in experimental procedures between the two cohorts of animals to be highlighted. […] Finally, the dose of 5-MeO-DMT was reduced to 10 mg/kg. […]
The FST apparatus consisted of a clear Plexiglas cylinder measuring 80 cm tall, 20 cm in diameter and filled with 40 cm of 24+1° C. water. […] 24 hours later, rats were again placed in the FST apparatus for 5 min and their activity was video recorded (FIG. 12A-12B). Each video was scored for immobility, swimming, and climbing behavior by trained blinded observers.

Structure (SMILES) | significantly regulated proteins in the hippocampus between saline and cocaine ([1]; cocaine 20 mg/kg i.p. daily for 14 days) [proteins] | immobility or time spent swimming [2] | differential expression of proteins in the control hippocampus ([1]; single i.p. dose (5-MeO-DMT 5 mg/kg, LSD 0.14 mg/kg, psilocybin 1 mg/kg, DOI 1 mg/kg) vs saline-saline, p<0.05, FC ±20%) [proteins] | differential expression of proteins in the chronic cocaine hippocampus ([1]; single i.p. dose after 14 days cocaine 20 mg/kg (5-MeO-DMT 5, LSD 0.14, psilocybin 1, DOI 1 mg/kg) vs cocaine-saline) [proteins] | reversal of chronic cocaine mediated proteomic changes in the hippocampus ([1]; single treatment (5-MeO-DMT 5, LSD 0.14, psilocybin 1, DOI 1 mg/kg i.p.)) [%] | climbing time ([2]; cocaine and 5-MeO-DMT (10 mg/kg) combination relative to control)
COC(=O)[C@H]1[C@@H](OC(=O)c2ccccc2)C[C@@H]2CC[C@H]1N2C.Cl [cocaine, cocaine hydrochloride, reference compound] | 85 | no differences in immobility or time spent swimming | – | – | – | –
COc1ccc2[nH]cc(CCN(C)C)c2c1 [5-MeO-DMT, 5-methoxy-N,N-dimethyltryptamine] | – | no differences in immobility or time spent swimming | 64 | 74 | 77 | significant increase in climbing time
